pIC50: −log10 of the molar value.

The target in one assay is T1, human topoisomerase II α (Homo sapiens, UniProt P11388).
T1 construct: purchased Professor Neil Osheroff (Vanderbilt University, Nashville, Tenn., USA)
T1 sequence (P11388 whole entry): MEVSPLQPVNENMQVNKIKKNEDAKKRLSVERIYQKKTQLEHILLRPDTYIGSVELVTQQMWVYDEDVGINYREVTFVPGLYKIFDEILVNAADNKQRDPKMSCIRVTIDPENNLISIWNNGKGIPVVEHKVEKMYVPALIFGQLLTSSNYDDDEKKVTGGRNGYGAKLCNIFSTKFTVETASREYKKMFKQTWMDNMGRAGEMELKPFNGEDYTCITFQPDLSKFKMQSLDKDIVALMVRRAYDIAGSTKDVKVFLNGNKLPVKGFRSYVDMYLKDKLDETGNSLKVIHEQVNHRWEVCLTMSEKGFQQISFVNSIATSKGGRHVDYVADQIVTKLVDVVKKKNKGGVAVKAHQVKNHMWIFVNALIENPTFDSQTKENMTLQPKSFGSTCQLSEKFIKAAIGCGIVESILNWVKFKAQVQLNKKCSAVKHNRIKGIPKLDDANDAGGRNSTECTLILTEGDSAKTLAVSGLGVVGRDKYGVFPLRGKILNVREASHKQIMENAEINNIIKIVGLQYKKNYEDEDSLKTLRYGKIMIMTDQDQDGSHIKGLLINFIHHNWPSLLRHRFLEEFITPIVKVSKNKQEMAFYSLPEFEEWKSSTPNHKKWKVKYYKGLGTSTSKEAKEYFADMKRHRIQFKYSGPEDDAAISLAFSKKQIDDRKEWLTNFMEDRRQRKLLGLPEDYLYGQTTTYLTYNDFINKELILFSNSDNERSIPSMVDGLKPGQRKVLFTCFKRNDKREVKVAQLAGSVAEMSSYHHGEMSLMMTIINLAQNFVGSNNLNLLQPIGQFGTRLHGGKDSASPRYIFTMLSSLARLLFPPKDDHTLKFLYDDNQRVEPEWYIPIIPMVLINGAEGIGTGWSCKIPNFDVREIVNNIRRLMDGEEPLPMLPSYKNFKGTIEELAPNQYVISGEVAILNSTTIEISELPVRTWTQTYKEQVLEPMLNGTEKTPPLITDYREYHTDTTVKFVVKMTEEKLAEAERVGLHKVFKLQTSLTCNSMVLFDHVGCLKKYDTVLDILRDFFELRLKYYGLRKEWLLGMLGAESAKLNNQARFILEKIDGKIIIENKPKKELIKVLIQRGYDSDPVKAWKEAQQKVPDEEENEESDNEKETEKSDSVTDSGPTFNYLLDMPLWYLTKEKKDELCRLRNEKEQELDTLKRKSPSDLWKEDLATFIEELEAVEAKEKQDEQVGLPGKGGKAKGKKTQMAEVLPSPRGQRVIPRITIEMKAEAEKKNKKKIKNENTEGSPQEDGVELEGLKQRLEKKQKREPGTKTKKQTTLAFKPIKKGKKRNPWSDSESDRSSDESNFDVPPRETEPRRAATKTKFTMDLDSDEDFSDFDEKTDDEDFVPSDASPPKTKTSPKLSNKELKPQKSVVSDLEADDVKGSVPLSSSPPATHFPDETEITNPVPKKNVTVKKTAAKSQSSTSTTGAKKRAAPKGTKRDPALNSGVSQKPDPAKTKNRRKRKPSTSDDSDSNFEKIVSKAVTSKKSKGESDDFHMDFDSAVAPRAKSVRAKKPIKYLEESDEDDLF
Put plainly: Topoisomerase II ATPase assay (Malachite Green). The format is biochemical.
Conditions: not given
On the procedure: The inhibition of topoisomerase II is measured as follows:
Purified human topoisomerase II α was purchased from Professor Neil Osheroff (Vanderbilt University—Nashville, Tenn., USA).
The pUC18 (Stratagene) plasmid was introduced into Escherichia coil XL-1 (Stratagene) and purified with the HiSpeed Plasmid Purification kit (Qiagen) according to the manufacturer instructions. The purity of the DNA preparations was evaluated spectrophotometrically (OD260/OD280 ratio) and by agarose gel.
Preparation of the Malachite Green Reagent:
Three volumes of 0.045% malachite green (Sigma, catalog no. M-9636) diluted in water are mixed for 20 min at room temperature with one volume of 4.2% ammonium molybdate (Axon Lab AG, catalog no. A-2246) diluted in 4 N HCl. After mixing, Triton X-100 (Merck, catalog no. 1.12298) is added to a final concentration of 0.01%. The solution is filtered at 0.2 μm and stored at room temperature in the dark.
ATP hydrolysis was monitored by measuring the production of inorganic phosphate released during the catalytic cycle of topoisomerase II α with acidic molybdate and malachite green (Lanzetta,et al., An improved assay for nanomole amounts of inorganic phosphate, Anal Biochem 1979;100:95-7). Briefly, human topoisomerase II α is pre-incubated at 37° C. for 10 min in 90 μl reaction buffer (10 mM Tris.HCl pH 7.9, 175 mM KCl, 1 mM EDTA, 2 mM DTT, 5 mM MgCl2, 2.5% glycerol) in the presence of the indicated amount of pUC18 and DMSO in F96 maxisorp Nunclmmuno plates (Nunc). The reaction is initiated by the addition of 10 μl ATP at the indicated concentrations and is carried out for 30 min at 37° C. under constant agitation. The reaction is stopped by the addition of 200 μl molybdate/malachite green solution and the absorbance is immediately measured at 630 nm. The OD630 value is measured in the absence of protein for each ATP concentration (background) is subtracted from the value obtained in the presence of enzyme. A standard curve with inorganic phosphate is used to determine the amount of inorganic phosphate produced during the reaction and to ensure that the measures are in the linear range of the assay. The kinetic parameters of the enzymes are determined from measurements (at least in duplicate) of the initial rates at different ATP concentrations. The data are analyzed with GraFit (Erithacus Software).
The compounds are tested at 10 μM of concentration to determine their inhibition potential given % of inhibition of the TOPO II ATPase activity.
For the determination of the IC50, the procedure is repeated for different concentrations of test compound selected to cover the range of 0% to 100% inhibition and the concentration at which 50% inhibition of topoisomerase II occurs (IC50) for each compound is determined from concentration-inhibition curves in a conventional manner.
With `c1nc2c(NC3CCCCCC3)nc(Nc3ccc4ncsc4c3)nc2[nH]1` [Example 1, N*2*-Benzothiazol-6-yl-N*6*-cycloheptyl-9H-purine-2,6-diamine], the pIC50 was 5.08. Consider `CC(C)(C)Nc1nc(Nc2ccc3ccccc3c2)nc2[nH]cnc12` [Example 15, N*6*-tert-Butyl-N*2*-naphthalen-2-yl-9H-purine-2,6-diamine], for which the negative-log IC50 (pIC50) was 5.48. For the compound `CC(C)(C)Nc1nc(Nc2ccc3cc(OCCN4CCOCC4)ccc3c2)nc2[nH]cnc12` [Example 22, N*6*-tert-Butyl-N*2*-[6-(2-morpholin-4-yl-ethoxy)-naphthalen-2-yl]-9H-purine-2,6-diamine], the pIC50 was 5.74. The same measure, in the same setting: the figure for `CCc1nc2c(NC(C)(C)C)nc(Nc3ccc4oc(=O)ccc4c3)nc2[nH]1` [Example 35, 6-(6-tert-Butylamino-8-ethyl-9H-purin-2-ylamino)-chromen-2-one] is 5.55. For the compound `CCc1nc2c(NC(C)(C)C)nc(Nc3ccc4nc(SC)sc4c3)nc2[nH]1` [Example 36, N*6*-tert-Butyl-8-ethyl-N*2*-(2-methylsulfanyl-benzothiazol-6-yl)-9H-purine-2,6-diamine], the pIC50 is 6.05. This pIC50 lies 0.50 log units higher than the previous one.

The assay is the same for the next values; noted with them: OD measured at 630 nm.
On to `c1nc2c(NC3CCCCCC3)nc(Nc3ccc4ncsc4c3)nc2[nH]1` [Example 1, N*2*-Benzothiazol-6-yl-N*6*-cycloheptyl-9H-purine-2,6-diamine], for which the “ATP competitive inhibitor activity” value was “ATP competitive inhibitor”.

The assay is the same for the next values; noted with them: Percent inhibition @10 μM, Malachite Green assay; read-out: TOPO II inh. (inhibition of the TOPO ATPase activity).
Take `c1csc(-c2ccc(Nc3nc(NC4CCCCCC4)c4nc[nH]c4n3)cc2)n1` [Example 2, N*6*-Cycloheptyl-N*2*-(4-thiazol-2-yl-phenyl)-9H-purine-2,6-diamine]: the inhibition at 10 µM is < 50%.

For `c1nc2c(NC3C4CC5CC(C4)CC3C5)nc(Nc3ccc4ncsc4c3)nc2[nH]1` (stereo not shown) [Example 5, N*6*-Adamantan-2-yl-N*2*-benzothiazol-6-yl-9H-purine-2,6-diamine], the inhibition at 10 µM is 50 to 65%. As to `c1nc2c(NC3CC4CCC3C4)nc(Nc3ccc4ncsc4c3)nc2[nH]1` (stereo not shown) [Example 6, N*2*-Benzothiazol-6-yl-N*6*-bicyclo[2.2.1]hept-2-yl-9H-purine-2,6-diamine], the inhibition at 10 µM fell in the range of 50 to 65%.

In the case of `c1nc2c(NC3CCCCCCC3)nc(Nc3ccc4ncsc4c3)nc2[nH]1` [Example 7, N*2*-Benzothiazol-6-yl-N*6*-cyclooctyl-9H-purine-2,6-diamine], the inhibition at 10 µM was in the range of 50 to 65%. `COc1cccc(Nc2nc(Nc3ccc4ncsc4c3)nc3[nH]cnc23)c1` [Example 8, N*2*-Benzothiazol-6-yl-N*6*-(3-methoxy-phenyl)-9H-purine-2,6-diamine]: the inhibition at 10 µM is < 50%.

For the compound `OC1CCC(Nc2nc(Nc3ccc4ncsc4c3)nc3[nH]cnc23)CC1` (stereo not shown) [Example 9, 4-[2-(Benzothiazol-6-ylamino)-9H-purin-6-ylamino]-cyclohexanol], the inhibition at 10 µM was < 50%.

Regarding `c1cnc2ccc(Nc3nc(Nc4ccc5ncccc5c4)c4nc[nH]c4n3)cc2c1` [Example 10, N*2*,N*6*-Di-quinolin-6-yl-9H-purine-2,6-diamine], the inhibition at 10 µM is < 50%. As for `c1ccc(C(Nc2nc(Nc3ccc4ncsc4c3)nc3[nH]cnc23)c2ccccc2)cc1` [Example 11, N*6*-Benzhydryl-N*2*-benzothiazol-6-yl-9H-purine-2,6-diamine], the inhibition at 10 µM is < 50%. As for `c1ccc(Nc2nc(Nc3ccc4ncccc4c3)nc3[nH]cnc23)cc1` [Example 12, N*6*-Phenyl-N*2*-quinolin-6-yl-9H-purine-2,6-diamine], the inhibition at 10 µM is 50 to 65%. Consider `c1ccc(C(Nc2nc(Nc3ccc4ncccc4c3)nc3[nH]cnc23)c2ccccc2)cc1` [Example 13, N*6*-Benzhydryl-N*2*-quinolin-6-yl-9H-purine-2,6-diamine], for which the inhibition at 10 µM is < 50%. In the case of `CC(C)(C)Nc1nc(Nc2ccc3ccccc3c2)nc2[nH]cnc12` [Example 15, N*6*-tert-Butyl-N*2*-naphthalen-2-yl-9H-purine-2,6-diamine], the inhibition at 10 µM was in the range of 65 to 80%. On to `Cc1ccc2cc(Nc3nc(NC(C)(C)C)c4nc[nH]c4n3)ccc2n1` [Example 16, N*6*-tert-Butyl-N*2*-(2-methyl-quinolin-6-yl)-9H-purine-2,6-diamine], for which the inhibition at 10 µM lay within 50 to 65%. As for `Cc1nc2cc(Nc3nc(NC(C)(C)C)c4nc[nH]c4n3)ccc2s1` [Example 17, N*6*-tert-Butyl-N*2*-(2-methyl-benzothiazol-5-yl)-9H-purine-2,6-diamine], the inhibition at 10 µM is < 50%. Same read-out and setting: the figure for `CC(C)(C)Nc1nc(Nc2ccc3nc(C(C)(C)C)sc3c2)nc2[nH]cnc12` [Example 18, N*6*-tert-Butyl-N*2*-(2-tert-butyl-benzothiazol-6-yl)-9H-purine-2,6-diamine] is 65 to 80%. Take `Cc1nc2ccc(Nc3nc(NC(C)(C)C)c4nc[nH]c4n3)cc2s1` [Example 19, N*6*-tert-Butyl-N*2*-(2-methyl-benzothiazol-6-yl)-9H-purine-2,6-diamine]: the inhibition at 10 µM was in the range of 50 to 65%. As for `CC(C)(C)Nc1nc(Nc2ccc(-c3nc4ccccc4s3)cc2)nc2[nH]cnc12` [Example 20, N*2*-(4-Benzothiazol-2-yl-phenyl)-N*6*-tert-butyl-9H-purine-2,6-diamine], the inhibition at 10 µM was 65 to 80%. On to `COc1ccc2cc(Nc3nc(NC(C)(C)C)c4nc[nH]c4n3)ccc2c1` [Example 21, N*6*-tert-Butyl-N*2*-(6-methoxy-naphthalen-2-yl)-9H-purine-2,6-diamine], for which the inhibition at 10 µM was ≥ 80%.

In the case of `CC(C)(C)Nc1nc(Nc2ccc3cc(OCCN4CCOCC4)ccc3c2)nc2[nH]cnc12` [Example 22, N*6*-tert-Butyl-N*2*-[6-(2-morpholin-4-yl-ethoxy)-naphthalen-2-yl]-9H-purine-2,6-diamine], the inhibition at 10 µM was ≥ 80%. Turning to `Cc1cc2cc(Nc3nc(NC(C)(C)C)c4nc[nH]c4n3)ccc2[nH]1` [Example 23, N*6*-tert-Butyl-N*2*-(2-methyl-1H-indol-5-yl)-9H-purine-2,6-diamine], the inhibition at 10 µM is < 50%.

In the case of `CC(C)(C)Nc1nc(Nc2ccc3[nH]ccc3c2)nc2[nH]cnc12` [Example 24, N*6*-tert-Butyl-N*2*-(1H-indol-5-yl)-9H-purine-2,6-diamine], the inhibition at 10 µM was < 50%. Consider `Cc1nc2c(NC3CCCCCC3)nc(Nc3ccc4ncsc4c3)nc2[nH]1` [Example 26, N*2*-Benzothiazol-6-yl-N*6*-cycloheptyl-8-methyl-9H-purine-2,6-diamine], for which the inhibition at 10 µM was < 50%. On the same count and under the same terms, then `CCc1nc2c(NC(C)C(F)(F)F)nc(Nc3ccc4ncsc4c3)nc2[nH]1` (stereo not shown) [Example 28, N*2*-Benzothiazol-6-yl-8-ethyl-N*6*-(2,2,2-trifluoro-1-methyl-ethyl)-9H-purine-2,6-diamine], with 50 to 65%; and `CCc1nc2c(N3CCCC3C)nc(Nc3ccc4ncsc4c3)nc2[nH]1` (stereo not shown) [Example 29, Benzothiazol-6-yl-[8-ethyl-6-(2-methyl-pyrrolidin-1-yl)-9H-purin-2-yl]-amine], with < 50%; and `CCc1nc2c(NC(C)CC(N)=O)nc(Nc3ccc4ncsc4c3)nc2[nH]1` (stereo not shown) [Example 30, 3-[2-(Benzothiazol-6-ylamino)-8-ethyl-9H-purin-6-ylamino]-butyramide], with 0%.

As for `CCOC(=O)CC(C)Nc1nc(Nc2ccc3ncsc3c2)nc2[nH]c(CC)nc12` (stereo not shown) [Example 31, 3-[2-(Benzothiazol-6-ylamino)-8-ethyl-9H-purin-6-ylamino]-butyric acid ethyl ester], the inhibition at 10 µM was < 50%. `CCCc1nc2c(NC(C)(C)C)nc(Nc3ccc4ncsc4c3)nc2[nH]1` [Example 32, N*2*-Benzothiazol-6-yl-N*6*-tert-butyl-8-propyl-9H-purine-2,6-diamine]: the inhibition at 10 µM is < 50%.

`CC(C)c1nc2c(NC(C)(C)C)nc(Nc3ccc4ncsc4c3)nc2[nH]1` [Example 33, N*2*-Benzothiazol-6-yl-N*6*-tert-butyl-8-isopropyl-9H-purine-2,6-diamine]: the inhibition at 10 µM was < 50%. As to `CC(C)(C)Nc1nc(Nc2ccc3ncsc3c2)nc2[nH]c(C3CCCC3)nc12` [Example 34, N*2*-Benzothiazol-6-yl-N*6*-tert-butyl-8-cyclopentyl-9H-purine-2,6-diamine], the inhibition at 10 µM was < 50%. As for `CCc1nc2c(NC(C)(C)C)nc(Nc3ccc4oc(=O)ccc4c3)nc2[nH]1` [Example 35, 6-(6-tert-Butylamino-8-ethyl-9H-purin-2-ylamino)-chromen-2-one], the inhibition at 10 µM is 65 to 80%. With `CCc1nc2c(NC(C)(C)C)nc(Nc3ccc4nc(SC)sc4c3)nc2[nH]1` [Example 36, N*6*-tert-Butyl-8-ethyl-N*2*-(2-methylsulfanyl-benzothiazol-6-yl)-9H-purine-2,6-diamine], the inhibition at 10 µM was ≥ 80%. Turning to `CCc1nc2c(NC(C)(C)C)nc(Nc3ccc4nc(OCCN5CCOCC5)sc4c3)nc2[nH]1` [Example 37, N*6*-tert-Butyl-8-ethyl-N*2*-[2-(2-morpholin-4-yl-ethoxy)-benzothiazol-6-yl]-9H-purine-2,6-diamine], the inhibition at 10 µM is ≥ 80%.

Usually pIC50 stands for the IC50 on a negative log10 scale, so that one unit is a factor of ten. Higher therefore signals a small IC50. Broadly, the inhibition is the share of the control response that was lost under treatment.

The values are drawn from patent US20070249639A1, “Use of 9H-Purine-2,6-Diamine Derivatives in the Treatment of Proliferative Diseases and Novel 9H-Purine-2,6-Diamine Derivatives” (priority 2004, published 2007).
